# US20230399342A1 (Incyte Corporation, priority 2022, published 2023)
# Columns and labels:
# DGKα = DGKα (Homo sapiens (Human), UniProt P23743); assay: In vitro DGKα inhibition assay (ADP-Glo); type: biochemical; conditions: His-tagged human recombinant enzyme, 0.1 nM DGKα, 50 μM ATP, 20 μM DLG, 90 minute incubation
# Summary of the method: (§1)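 His-tagged human DGKα (0.1 nM, 50 μM ATP) or DGKζ (0.4 nM, 30 μM ATP), each with 20 μM DLG, in Tris pH 7.5 buffer with CHAPS, Mg2+, Ca2+.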
# DGKζ = DGKζ (Homo sapiens (Human), UniProt Q13574); assay: In vitro DGKζ inhibition assay (ADP-Glo); type: biochemical; conditions: His-tagged human recombinant enzyme, 0.4 nM DGK, 30 μM ATP, 20 μM DLG, 90 minute incubation
# Chain of DGKζ (Q13574 whole entry): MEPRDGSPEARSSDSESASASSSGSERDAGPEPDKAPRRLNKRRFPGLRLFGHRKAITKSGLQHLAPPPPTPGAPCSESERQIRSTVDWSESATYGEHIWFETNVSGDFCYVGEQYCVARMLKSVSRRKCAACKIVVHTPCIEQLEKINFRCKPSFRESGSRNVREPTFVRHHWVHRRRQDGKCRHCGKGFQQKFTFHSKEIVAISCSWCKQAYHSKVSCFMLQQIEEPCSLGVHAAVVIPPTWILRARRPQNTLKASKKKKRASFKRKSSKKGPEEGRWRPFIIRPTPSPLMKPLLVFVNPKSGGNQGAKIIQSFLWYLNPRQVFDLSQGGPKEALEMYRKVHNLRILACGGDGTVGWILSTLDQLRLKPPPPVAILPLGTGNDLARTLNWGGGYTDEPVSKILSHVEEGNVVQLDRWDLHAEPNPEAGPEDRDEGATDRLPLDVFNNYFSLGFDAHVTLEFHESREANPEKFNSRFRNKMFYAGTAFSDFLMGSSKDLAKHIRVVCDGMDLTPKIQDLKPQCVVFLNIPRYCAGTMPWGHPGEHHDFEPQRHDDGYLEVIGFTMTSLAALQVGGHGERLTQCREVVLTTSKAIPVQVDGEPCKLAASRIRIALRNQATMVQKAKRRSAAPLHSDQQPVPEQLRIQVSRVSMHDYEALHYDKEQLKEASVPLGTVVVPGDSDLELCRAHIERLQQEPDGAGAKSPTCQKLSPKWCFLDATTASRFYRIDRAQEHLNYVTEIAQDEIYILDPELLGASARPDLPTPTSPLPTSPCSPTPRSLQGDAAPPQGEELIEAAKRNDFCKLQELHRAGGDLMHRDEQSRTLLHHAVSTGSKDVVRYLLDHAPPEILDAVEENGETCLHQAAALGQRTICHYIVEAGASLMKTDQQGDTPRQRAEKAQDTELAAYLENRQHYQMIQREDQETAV
# Summary of the method: as §1
# Chain of DGKα (P23743 whole entry): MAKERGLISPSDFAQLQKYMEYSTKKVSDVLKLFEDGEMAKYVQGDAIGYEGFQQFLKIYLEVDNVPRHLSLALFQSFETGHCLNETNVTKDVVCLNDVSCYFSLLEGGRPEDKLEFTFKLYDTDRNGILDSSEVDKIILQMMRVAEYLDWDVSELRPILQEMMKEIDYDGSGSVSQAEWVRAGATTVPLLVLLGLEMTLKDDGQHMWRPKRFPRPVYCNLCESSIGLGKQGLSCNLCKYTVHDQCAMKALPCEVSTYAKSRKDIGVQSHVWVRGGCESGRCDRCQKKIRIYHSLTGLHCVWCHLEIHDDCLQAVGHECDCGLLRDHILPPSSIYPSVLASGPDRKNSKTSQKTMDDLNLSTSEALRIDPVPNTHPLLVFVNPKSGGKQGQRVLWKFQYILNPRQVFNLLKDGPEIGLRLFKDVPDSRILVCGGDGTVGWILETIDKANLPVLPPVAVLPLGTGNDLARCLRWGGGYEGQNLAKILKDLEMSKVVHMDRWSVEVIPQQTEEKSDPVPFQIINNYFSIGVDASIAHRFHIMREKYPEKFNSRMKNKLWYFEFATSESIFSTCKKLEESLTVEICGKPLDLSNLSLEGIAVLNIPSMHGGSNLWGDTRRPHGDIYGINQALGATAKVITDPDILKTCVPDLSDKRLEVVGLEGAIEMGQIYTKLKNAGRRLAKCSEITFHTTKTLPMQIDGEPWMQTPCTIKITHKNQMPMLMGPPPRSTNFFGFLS
Compound,IC50 (DGKα) [µM],IC50 (DGKζ) [µM]
"Cc1nn(C)c2c1c(N1C[C@@H](C)N(C(c3ccc(F)cc3)c3ccc(F)cc3)C[C@@H]1C)cc1nncn12 [Example 12, 4-((2S,5R)-4-(Bis(4-fluorophenyl)methyl)-2,5-dimethylpiperazin-1-yl)-1,3-dimethyl-1H-pyrazolo[4,3-e][1,2,4]triazolo[4,3-a]pyridine]",≤ 0.02,> 2
"C[C@@H]1CN(c2nc3nncn3c3c2ncn3CC2CC2)[C@@H](C)CN1[C@@H](c1ccc(F)cc1)c1ccc(OC(F)(F)F)cn1 [Example 24, 1-(Cyclopropylmethyl)-4-((2S,5R)-4-((S)-(4-fluorophenyl)(5-(trifluoromethoxy)pyridin-2-yl)methyl)-2,5-dimethylpiperazin-1-yl)-1H-[1,2,4]triazolo[3,4-b]purine]",≤ 0.02,≤ 0.02
"CC[C@H]1CN(C(c2ccc(F)cc2)c2ccc(F)cc2)[C@H](CC)CN1c1nc2nncn2c2c1nnn2C[C@H]1CCCO1 [Example 33, 4-((2S,5R)-4-(Bis(4-fluorophenyl)methyl)-2,5-diethylpiperazin-1-yl)-1-(((R)-tetrahydrofuran-2-yl)methyl)-1H-[1,2,3]triazolo[4,5-e][1,2,4]triazolo[4,3-a]pyrimidine]",≤ 0.02,≤ 0.02
"CC[C@H]1CN(C(c2ccc(F)cc2)c2ccc(F)cc2)[C@H](CC)CN1c1nc2nncn2c2c1ncn2CC1CC1 [Example 21, 4-((2S,5R)-4-(Bis(4-fluorophenyl)methyl)-2,5-diethylpiperazin-1-yl)-1-(cyclopropylmethyl)-1H-[1,2,4]triazolo[3,4-b]purine]",≤ 0.02,≤ 0.02
"Cc1nc2c(N3C[C@@H](C)N([C@H](c4ccc(F)c(F)c4)C4CC(F)(F)C4)C[C@@H]3C)nc3nncn3c2n1C[C@@H]1CCCO1 [Example 46, 4-((2S,5R)-4-((S)-(3,3-Difluorocyclobutyl)(3,4-difluorophenyl)methyl)-2,5-dimethylpiperazin-1-yl)-2-methyl-1-(((S)-tetrahydrofuran-2-yl)methyl)-1H-[1,2,4]triazolo[3,4-b]purine]",≤ 0.02,≤ 0.02
"Cc1nc2c(N3C[C@@H](C)N([C@H](c4cccc(Cl)c4)C(C)C)C[C@@H]3C)nc3nncn3c2n1C[C@@H]1CCCO1 [Example 96, 4-((2S,5R)-4-((S)-1-(3-Chlorophenyl)-2-methylpropyl)-2,5-dimethylpiperazin-1-yl)-2-methyl-1-(((S)-tetrahydrofuran-2-yl)methyl)-1H-[1,2,4]triazolo[3,4-b]purine]",≤ 0.02,≤ 0.02
"C[C@@H]1CN(c2nc3nncn3c3c2ncn3CC2CC2)[C@@H](C)CN1C(c1ccc(F)cc1)c1ccc(F)cc1 [Example 18, 4-((2S,5R)-4-(Bis(4-fluorophenyl)methyl)-2,5-dimethylpiperazin-1-yl)-1-(cyclopropylmethyl)-1H-[1,2,4]triazolo[3,4-b]purine]",≤ 0.02,≤ 0.02
"Cc1nc2c(N3C[C@@H](C)N(C(c4ccc(Cl)c(F)c4)C4CC(F)(F)C4)C[C@@H]3C)nc3nncn3c2n1C[C@@H]1CCCO1 (single isomer, unassigned) [Example 50]",≤ 0.02,≤ 0.02
"C[C@H]1CN(C(c2ccc(F)cc2)c2ccc(F)cc2)[C@H](CC#N)CN1c1nc2nncn2c2scnc12 [Example 14, 2-((2R,5S)-1-(Bis(4-fluorophenyl)methyl)-5-methyl-4-(thiazolo[4,5-e][1,2,4]triazolo[4,3-a]pyrimidin-4-yl)piperazin-2-yl)acetonitrile]",≤ 0.02,≤ 0.02
"Cc1nc2c(N3C[C@@H](C)N(C(c4ccc(C(F)(F)F)cc4)c4ccc(C(F)(F)F)cc4)C[C@@H]3C)nc3nncn3c2n1C[C@@H]1CCCO1 [Example 134, 4-((2S,5R)-4-(Bis(4-(trifluoromethyl)phenyl)methyl)-2,5-dimethylpiperazin-1-yl)-2-methyl-1-(((S)-tetrahydrofuran-2-yl)methyl)-1H-[1,2,4]triazolo[3,4-b]purine]",≤ 0.02,≤ 0.02

# More lines, now with the values ahead:
IC50 (DGKα) [µM],IC50 (DGKζ) [µM],Compound
≤ 0.02,≤ 0.02,"Cc1nc2c(N3C[C@@H](C)N([C@H](c4cccc(F)c4)C(C)C)C[C@@H]3C)nc3nncn3c2n1C[C@@H]1CCCO1 [Example 94, 4-((2S,5R)-4-((S)-1-(3-Fluorophenyl)-2-methylpropyl)-2,5-dimethylpiperazin-1-yl)-2-methyl-1-(((S)-tetrahydrofuran-2-yl)methyl)-1H-[1,2,4]triazolo[3,4-b]purine]"
≤ 0.02,≤ 0.02,"Cc1nc2c(N3C[C@@H](C)N(C(c4ccc(Br)cc4)C4CC(F)(F)C4)C[C@@H]3C)nc3nncn3c2n1C[C@@H]1CCCO1 (stereo partly drawn) [Example 61, 4-((2S,5R)-4-((4-Bromophenyl)(3,3-difluorocyclobutyl)methyl)-2,5-dimethylpiperazin-1-yl)-2-methyl-1-(((S)-tetrahydrofuran-2-yl)methyl)-1H-[1,2,4]triazolo[3,4-b]purine]"
≤ 0.02,≤ 0.02,"Cc1nc2c(N3C[C@@H](C)N(C(c4ccc(C(F)(F)F)cc4)C4CC(F)(F)C4)C[C@@H]3C)nc3nncn3c2n1C[C@@H]1CCCO1 (single isomer, unassigned) [Example 43]"
≤ 0.02,≤ 0.02,"Cc1nc2c(N3C[C@@H](C)N(C(c4ccc(F)c(C(F)(F)F)c4)C(C)C)C[C@@H]3C)nc3nncn3c2n1C[C@@H]1CCCO1 (stereo partly drawn) [Example 84, 4-((2S,5R)-4-(1-(4-Fluoro-3-(trifluoromethyl)phenyl)-2-methylpropyl)-2,5-dimethylpiperazin-1-yl)-2-methyl-1-(((S)-tetrahydrofuran-2-yl)methyl)-1H-[1,2,4]triazolo[3,4-b]purine]"
≤ 0.02,≤ 0.02,"Cc1nc2c(N3C[C@@H](C)N(C(c4ccc(Br)cc4)c4ccc(F)c(Cl)c4)C[C@@H]3C)nc3nncn3c2n1C[C@@H]1CCCO1 (single isomer, unassigned) [Example 141]"
≤ 0.02,≤ 0.02,"COc1ccc([C@H](c2ccc(C(F)F)cc2)N2C[C@H](C)N(c3nc4nncn4c4c3nc(C)n4C[C@@H]3CCCO3)C[C@H]2C)cc1 [Example 92, 4-((2S,5R)-4-((4-(Difluoromethyl)phenyl)(4-methoxyphenyl)methyl)-2,5-dimethylpiperazin-1-yl)-2-methyl-1-(((S)-tetrahydrofuran-2-yl)methyl)-1H-[1,2,4]triazolo[3,4-b]purine]"
≤ 0.02,≤ 0.02,"C[C@@H]1CN(c2nc3nncn3c3c2ncn3CCN(C)C)[C@@H](C)CN1[C@@H](c1ccc(C(F)(F)F)cc1)c1ccc(C(F)(F)F)cn1 [Example 101, 2-(4-((2S,5R)-2,5-Dimethyl-4-((S)-(4-(trifluoromethyl)phenyl)(5-(trifluoromethyl)pyridin-2-yl)methyl)piperazin-1-yl)-1H-[1,2,4]triazolo[3,4-b]purin-1-yl)-N,N-dimethylethan-1-amine]"
≤ 0.02,≤ 0.02,"Cc1nc2c(N3C[C@@H](C)N(C(c4ccc(C(F)(F)F)cc4)[C@H]4C[C@H](C(F)(F)F)C4)C[C@@H]3C)nc3nncn3c2n1C[C@@H]1CCCO1 (stereo partly drawn) [Example 115, 4-((2S,5R)-2,5-Dimethyl-4-(((trans)-3-(trifluoromethyl)cyclobutyl)(4-(trifluoromethyl)phenyl)methyl)piperazin-1-yl)-2-methyl-1-(((S)-tetrahydrofuran-2-yl)methyl)-1H-[1,2,4]triazolo[3,4-b]purine]"
